The nature of the data set: Bupivacaine elution profile from coated stents of Example 4 in PBS flow chamber (HPLC). The note with it: coated stent of Example 4 (calcium phosphate base layer + PVA polymer layer), 10 ml PBS per day. It is filed as physicochemical. The method, then:
An elution analysis was performed to assay release of bupivacaine over time from the coated stents of Example 4. An 18 mm long test specimen having a known surface area was cut from one of the coated stents of Example 4 and placed in a flow chamber. For 7 days, the test specimen was bathed with 10 ml per day of a phosphate buffered saline (PBS) solution. Every 24 hours, a 100 μl sample was taken of the 10 ml of PBS effluent collected over the preceding 24 hour period. The amount of bupivacaine in a 10 μl aliquot of the sample was quantified using a reverse-phase high pressure liquid chromatography (HPLC) system including a […] silica column. A solution of 30% acetonitrile and 70% buffered acid (985 ml of HPLC-grade water, 15 ml 1.0 M HCl, and 1.38 grams monobasic NaH2PO4) was employed as the mobile phase for the HPLC analysis. The data from the HPLC analysis was then normalized against the surface area of the test specimen and 10 ml volume of PBS effluent. Each data point represents the amount of bupivacaine eluted into the PBS solution during the proceeding 24-hour period, with each data point expressed in terms of in μg of bupivacaine released per cm^2 of coated stent surface. […]

For `CCCCN1CCCCC1C(=O)Nc1c(C)cccc1C` (centres unmarked) [bupivacaine], the “release of bupivacaine from coated stent into PBS solution” value is given as “relative burst release” (days 1-3, attributed to the polymer layer) and “more gradual release” (days 4-7, attributed to erosion of the calcium phosphate base layer).
